{"source": "paper PMC5786788", "about": "“Antimicrobial Octapeptin C4 Analogues Active against Cryptococcus Species” (Antimicrobial Agents and Chemotherapy, 2018)", "key": {"[1]": {"system": "C. neoformans var. grubii", "experiment": "organism not typed", "conditions": "no visible growth", "method": "The MICs of the yeast strains for PMB, PME, and octapeptin C4 and its derivatives were determined in accordance with CLSI M27-A2 guidelines using YNB (Becton Dickinson, USA) medium supplemented with 10 mM ammonium sulfate and 2% glucose, a final inoculum concentration of 1.5 × 10^3 to 2.0 × 10^3 cells/ml, and incubation at 35°C for 72 h ([39]). […] The MICs for PMB, PME, and octapeptin C4 for A. fumigatus were determined in accordance with the CLSI M38-A2 guidelines ([40]) using synthetic RPMI 1640 medium (with glutamine, without bicarbonate and with phenol red; Life Technologies, USA). The final inoculum concentration was 0.4 × 10^4 to 5 × 10^4 cells/ml, with incubation at 35°C for 48 h. […] All assays were completed in triplicate. Fluconazole was used as a positive control where the MIC was determined at both 50% growth (in accordance with CLSI M27-A2 guidelines) and when there was a “no visible growth” reading. […]"}, "[2]": {"system": "C. neoformans var. gattii", "experiment": "organism not typed", "conditions": "no visible growth", "method": "(§1) The MICs of the yeast strains for PMB, PME, and octapeptin C4 and its derivatives were determined in accordance with CLSI M27-A2 guidelines using YNB (Becton Dickinson, USA) medium supplemented with 10 mM ammonium sulfate and 2% glucose, a final inoculum concentration of 1.5 × 10^3 to 2.0 × 10^3 cells/ml, and incubation at 35°C for 72 h ([39]). […] The MICs for PMB, PME, and octapeptin C4 for A. fumigatus were determined in accordance with the CLSI M38-A2 guidelines ([40]) using synthetic RPMI 1640 medium (with glutamine, without bicarbonate and with phenol red; Life Technologies, USA). The final inoculum concentration was 0.4 × 10^4 to 5 × 10^4 cells/ml, with incubation at 35°C for 48 h. […] All assays were completed in triplicate. Fluconazole was used as a positive control where the MIC was determined at both 50% growth (in accordance with CLSI M27-A2 guidelines) and when there was a “no visible growth” reading."}, "[3]": {"system": "C. neoformans var. neoformans", "experiment": "microbe, parasite or virus in culture", "conditions": "no visible growth", "method": "as §1"}, "[4]": {"system": "C. neoformans H99 (cap59Δ)", "format": "cell-based, Cryptococcus neoformans", "conditions": "triplicate", "from_the_text": "The different susceptibility of C. neoformans and C. gattii to PMB compared to other pathogenic fungi such as C. albicans and A. fumigatus has been postulated to arise from differences in cell surface composition ([38]). One key difference is the presence of a negatively charged polysaccharide capsule in Cryptococcus spp. proposed to concentrate the cationic lipopeptides at the cell surface ([38]). To examine this potential interaction for the octapeptin series, a C. neoformans cap59Δ mutant strain deficient in the secretion of negatively charged glucuronoxylomannan (an α1–3-linked mannan containing β1,2 and β1,4 xylosyl substitutions, as well as β1,2-linked glucuronyl residues) ([41], [42]), was tested against octapeptin C4 in comparison to PMB.\nFungal strains were stored in 15% glycerol at −80°C until use. The fungal strains used were H99 (C. neoformans type strain) ([55]), cap59Δ (an acapsular H99 mutant) ([56]), ATCC 90113 (C. neoformans), MMRL 2651 (C. gattii), ATCC 90028 (Candida albicans), ATCC 90030 (Candida glabrata), ATCC 22019 (Candida parapsilosis), and ATCC MYA 3626 (Aspergillus fumigatus). Yeasts were cultured in liquid (1% yeast extract, 2% Bacto peptone, 2% glucose) or solid (additional 2% agar) yeast extract-peptone-dextrose (YPD) media at 30°C and maintained at 4°C for no longer than 2 weeks. A. fumigatus was prepared on potato dextrose medium at 30°C and maintained at 4°C for no longer than 2 weeks.\nas §1"}}, "note": "Where a SMILES comes first, the peptide text is derived from it. Bridges are numbered along the chain shown (N, C = ends). [ ]: non-standard residue; d: D form. The star is where a group is joined. Decanoyl(3R-OH) = CCCCCCC[C@@H](O)CC(=O)*; dDab = NCC[C@@H](N)C(=O)O; Dab = NCC[C@H](N)C(=O)O", "data": [{"smiles": "CCCCCCC[C@@H](O)CC(=O)N[C@H](CCN)C(=O)N[C@H]1CCNC(=O)[C@H](CC(C)C)NC(=O)[C@H](CCN)NC(=O)[C@H](CCN)NC(=O)[C@H](CC(C)C)NC(=O)[C@@H](Cc2ccccc2)NC(=O)[C@H](CCN)NC1=O", "note": "[Octapeptin C4, octapeptin C4] ({Decanoyl(3R-OH)}-[dDab][Dab][Dab][dF]L[Dab][Dab]L; lactam 2-C (inferred); N-terminus assumed)", "values": [{"measurement": "MIC", "setting": "[1]; strain 486 (USA)", "value": 3.13, "unit": "µg/mL"}, {"measurement": "MIC", "setting": "[1]; strain 488 (AIDS+, pre-HAART USA)", "value": 1.56, "unit": "µg/mL"}, {"measurement": "MIC", "setting": "[1]; strain 490 (USA)", "value": 1.56, "unit": "µg/mL"}, {"measurement": "MIC", "setting": "[1]; strain 496 (USA)", "value": 1.56, "unit": "µg/mL"}, {"measurement": "MIC", "setting": "[1]; strain 500 (USA)", "value": 1.56, "unit": "µg/mL"}, {"measurement": "MIC", "setting": "[1]; strain 502 (ARR3+ USA)", "value": 3.13, "unit": "µg/mL"}, {"measurement": "MIC", "setting": "[1]; strain 505 (India)", "value": 1.56, "unit": "µg/mL"}, {"measurement": "MIC", "setting": "[1]; strain 507 (India)", "value": 1.56, "unit": "µg/mL"}, {"measurement": "MIC", "setting": "[1]; strain 512 (India)", "value": 3.13, "unit": "µg/mL"}, {"measurement": "MIC", "setting": "[1]; strain 516 (India)", "value": 3.13, "unit": "µg/mL"}, {"measurement": "MIC", "setting": "[1]; strain 518 (VNI India)", "value": 1.56, "unit": "µg/mL"}, {"measurement": "MIC", "setting": "[1]; strain 522 (India)", "value": 3.13, "unit": "µg/mL"}, {"measurement": "MIC", "setting": "[1]; strain 525 (India)", "value": 1.56, "unit": "µg/mL"}, {"measurement": "MIC", "setting": "[1]; strain 1188 (Japan lung)", "value": 3.13, "unit": "µg/mL"}, {"measurement": "MIC", "setting": "[1]; strain 1189 (USA BAL/HIV)", "value": 1.56, "unit": "µg/mL"}, {"measurement": "MIC", "setting": "[1]; strain 1194 (Italy)", "value": 1.56, "unit": "µg/mL"}, {"measurement": "MIC", "setting": "[1]; strain 1196 (Botswana CSF/AIDS)", "value": 3.13, "unit": "µg/mL"}, {"measurement": "MIC", "setting": "[1]; strain 1197 (Botswana CSF/AIDS)", "value": 3.13, "unit": "µg/mL"}, {"measurement": "MIC", "setting": "[1]; strain 1199 (Uganda CSF/HIV+ VNII)", "value": 1.56, "unit": "µg/mL"}, {"measurement": "MIC", "setting": "[1]; strain H99O (lab strain)", "value": 1.56, "unit": "µg/mL"}, {"measurement": "MIC", "setting": "[2]; strain ATCC 24066 (NIH 18)", "value": 1.56, "unit": "µg/mL"}, {"measurement": "MIC", "setting": "[2]; strain ATCC 32269", "value": 3.13, "unit": "µg/mL"}, {"measurement": "MIC", "setting": "[2]; strain ATCC 32608 (NIH 191)", "value": 0.78, "unit": "µg/mL"}, {"measurement": "MIC", "setting": "[2]; strain ATCC 32609 (NIH444)", "value": 3.13, "unit": "µg/mL"}, {"measurement": "MIC", "setting": "[2]; strain ATCC 34878", "value": 3.13, "unit": "µg/mL"}, {"measurement": "MIC", "setting": "[2]; strain ATCC 34882", "value": 6.25, "unit": "µg/mL"}, {"measurement": "MIC", "setting": "[2]; strain B5748 (VGIV HIV India)", "value": 3.13, "unit": "µg/mL"}, {"measurement": "MIC", "setting": "[2]; strain R266 (Vancouver Island)", "value": 1.56, "unit": "µg/mL"}, {"measurement": "MIC", "setting": "[2]; strain R267 (Vancouver Island)", "value": 12.50, "unit": "µg/mL"}, {"measurement": "MIC", "setting": "[2]; strain R268 (Vancouver Island)", "value": 3.13, "unit": "µg/mL"}, {"measurement": "MIC", "setting": "[2]; strain R269 (Vancouver Island)", "value": 3.13, "unit": "µg/mL"}, {"measurement": "MIC", "setting": "[2]; strain R270 (Vancouver Island)", "value": 3.13, "unit": "µg/mL"}, {"measurement": "MIC", "setting": "[3]; strain WM 01.127 (USA)", "value": 1.56, "unit": "µg/mL"}, {"measurement": "MIC", "setting": "[3]; strain WM 02.141 (Russia)", "value": 3.13, "unit": "µg/mL"}, {"measurement": "MIC", "setting": "[3]; strain WM 02.142 (Russia)", "value": 1.56, "unit": "µg/mL"}, {"measurement": "MIC", "setting": "[3]; strain WM 02.143 (Russia)", "value": 3.13, "unit": "µg/mL"}, {"measurement": "MIC", "setting": "[3]; strain WM 02.37 (Canada)", "value": 1.56, "unit": "µg/mL"}, {"measurement": "MIC", "setting": "[3]; strain WM 02.52 (Canada)", "value": 1.56, "unit": "µg/mL"}, {"measurement": "MIC", "setting": "[3]; strain WM 04.168 (Chile)", "value": 1.56, "unit": "µg/mL"}, {"measurement": "MIC", "setting": "[3]; strain WM 04.171 (Thailand, environmental)", "value": 1.56, "unit": "µg/mL"}, {"measurement": "MIC", "setting": "[3]; strain WM 05.467 (Brazil, environmental)", "value": 1.56, "unit": "µg/mL"}, {"measurement": "MIC", "setting": "[3]; strain WM 05.515 (Peru)", "value": 1.56, "unit": "µg/mL"}, {"measurement": "MIC", "setting": "[3]; strain WM 09.109 (Italy, environmental)", "value": 1.56, "unit": "µg/mL"}, {"measurement": "MIC", "setting": "[3]; strain WM 09.112 (USA)", "value": 1.56, "unit": "µg/mL"}, {"measurement": "MIC", "setting": "[3]; strain WM 10.119 (Australia)", "value": 1.56, "unit": "µg/mL"}, {"measurement": "MIC", "setting": "[3]; strain WM 629 (Australia)", "value": 3.13, "unit": "µg/mL"}, {"measurement": "MIC", "setting": "[3]; strain WM 1706 (Argentina)", "value": 1.56, "unit": "µg/mL"}, {"measurement": "MIC", "setting": "[3]; strain WM 1740 (Chile)", "value": 3.13, "unit": "µg/mL"}, {"measurement": "MIC", "setting": "[3]; strain WM 2207 (USA, environmental)", "value": 1.56, "unit": "µg/mL"}, {"measurement": "MIC", "setting": "[3]; strain WM 2242 (USA)", "value": 1.56, "unit": "µg/mL"}, {"measurement": "MIC", "setting": "[3]; strain WM 2530 (USA)", "value": 3.13, "unit": "µg/mL"}, {"measurement": "MIC C. neoformans H99 (cap59Δ)", "setting": "[4]; Table 1, CLSI M27-A2, YNB medium, 35°C, no visible growth after 72 h", "value": 6.25, "unit": "µg/mL"}, {"measurement": "MICs against various Cryptococcus strains: H99 (cap59Δ)", "setting": "[4]; Table 2, values consistent across replicates", "value": 6.25, "unit": "µg/mL"}]}]}
